Data taken from patent US7645736B2, “Integrin inhibitors for the treatment of eye diseases” (Merck Patent GmbH, priority 2004, dated 2010).

Tested on: bFGF-stimulated corneal angiogenesis
Test: rabbit corneal micropocket model, single intravitreal injection
Assay type: in vivo
Settings: single (day 0) intravitreal, 100 μL, drug = 2 mg/eye; for inhibition [%] of neovascularisation area: vs saline control
Protocol: (1996). In this model angiogenesis is stimulated by implantation of Hydron pellets containing an angiogenesis stimulating cytokine like, for example, fibroblast growth factor (FGF) or vascular endothelial growth factor (VEGF) into the cornea. After implantation the active compound to be tested is administered by paralimbal intravitreal injection. Effect on neovascularisation is measured after predetermined time intervals by visual examination using a microscope, photographing and computer-assisted quantification of photographs.
The effect of intravitreal application of an αvβ3 and/or αvβ5 inhibitor was examined in rabbit corneal micropocket model as described by Shaffer R. W. (see above). As an example for an αvβ3 and/or αvβ5 inhibitor 2-(2,2-dimethylpropyloxycarboxamido)-3{3,4-dihydro-2-[N-(2-imidazoly)-carbamoylethyl]-2H-1,4-benzoxazin-3-on-6-yl}propionic acid was used in the experiment. For induction of angiogenesis Hydron pellets containing basic fibroblast growth factor (bFGF) were used. Preparation of bFGF containing implants was performed by casting Hydron [poly(hydroxyethyl)methacrylate] in specially prepared Teflon pegs that have a 2.5 mm core drilled into their surfaces. Approximately 12 μl of casting material was placed into each peg and polymerized overnight in a sterile hood, then sterilized by ultraviolet irradiation.
The experiment consisted of 10 animals; in each eye of the animals one individual pellet was implanted into a surgically created “pocket” in the mid stroma of the rabbit cornea. The surgical procedure was done under sterile technique using a Moeller-Wedel Microflex operating microscope (Haag-Streit Company, Germany) equipped with a beamsplitter and camera for photographically recording individual comeas. A 69 Beaver blade was used to create a 3 mm by 5 mm “pocket” to a depth of half the comeal thickness. The stroma was dissected peripherally using an spatula and the pellet implanted with its peripheral margin 2 mm from limbus. […] For comparison the same procedure was performed in the other 5 animals using saline only. Following implantation the eyes Were photographed and the area of neovascularisation measured after predetermined intervals.

Structure (SMILES): CC(C)(C)COC(=O)NC(Cc1ccc2c(c1)NC(=O)C(CCC(=O)Nc1ncc[nH]1)O2)C(=O)O (centres unmarked) [Drug, 2-(2,2-dimethylpropyloxycarboxamido)-3-{3,4-dihydro-2-[N-(2-imidazolyl)-carbamoylethyl]-2H-1,4-benzoxazin-3-on-6-yl}propionic acid]
- mean area [mm^2] of neovascularisation (5 days post implantation): 1.71 mm^2
- inhibition [%] of neovascularisation area (5 days post implantation): 56.3%
- mean area [mm^2] of neovascularisation (7 days post implantation): 4.65 mm^2
- inhibition [%] of neovascularisation area (7 days post implantation): 13.4%
- mean area [mm^2] of neovascularisation (10 days post implantation): 5.10 mm^2
- inhibition [%] of neovascularisation area (10 days post implantation): 45.8%
- mean area [mm^2] of neovascularisation (14 days post implantation): 9.94 mm^2
- inhibition [%] of neovascularisation area (14 days post implantation): 40.0%
